Experimental findings from patent US7595313B2, “Nitric oxide donating diuretic compounds, compositions and methods of use” (NicOx, S.A., priority 2005, dated 2009) are described below.

One may read the melting point as the temperature of the solid-liquid transition.

For one series, the system named is Male Wistar rats. Nature of the series: Determination of the diuresis (urine volume over 6 hours after oral dosing). The class given is in vivo, rat. On the procedure:
Procedures were approved by the Institutional Animal Care and Use Committee of NitroMed, Inc. Male Wistar rats (180-200 g) were purchased from Charles River Laboratories (Kingston, N.Y. or Raleigh, N.C.) and allowed to acclimate in the facility for a period of at least 72 h. Rats were randomly housed 2-3 per cage in a light-controlled room with a 12 hour light/dark cycle and allowed ad libitum access to food and water.
Prior to the experiment, each rat was placed in a metabolic cage and allowed to acclimate for a period of 24-48 hours with food and water ad libitum. During this acclimation period, rats received mash food instead of pellet food to prevent contamination of the urine samples. All rats were fasted for 18 hours prior to experimentation. In addition, water was removed 90 minutes prior to oral dosing with test compound or vehicle.
The test compounds were prepared immediately prior to dosing in 0.5% Methocel (F4M Premium Hydroxypropyl Methylcellulose, lot # PF12012N12; Dow Chemical Company, USA) and homogenized with a glass/Teflon pestle motorized homogenizer. Gently vortexed test compounds were administered intragastrically (p.o.; 30 mg/kg or 3 mg/kg) at a dose volume of 3 ml per rat using an 18 gauge gavage needle. Urine volume (ml) was monitored and urine was collected for subsequent electrolyte analysis over a 6 hours period. […] Data are expressed as mean ±SEM; n=6 or 7.

Where [1] appears, read: p.o. 30 mg/kg in 0.5% Methocel, male Wistar rats, 6 hours, mean ± SEM, n=6 or 7.
The mark [2] stands for this setting: p.o. 3 mg/kg in 0.5% Methocel, male Wistar rats, 6 hours, mean ± SEM, n=6 or 7.

SMILES strings stand for the structures. Where a name gives a salt, the structure may show the parent alone.

As to `CN(CC1Nc2cc(Cl)c(S(N)(=O)=O)cc2S(=O)(=O)N1)C(=O)CN(CCO[N+](=O)[O-])CCO[N+](=O)[O-]` (stereo not drawn), the melting point was 183 to 185 °C (dec.). The same measure, in the same setting: the result for `Cc1c(C2Nc3cc(C(F)(F)F)c(S(N)(=O)=O)cc3S(=O)(=O)N2)no[n+]1[O-]` (stereo not drawn) (as salt: HCl) [Example 10, 2H-1,2,4-Benzothiadiazine-7-sulfonamide, 3,4-dihydro-3-(4-methyl-5-oxido-1,2,5-oxadiazol-3-yl)-6-(trifluoromethyl)-, 1,1-dioxide] reads 160 °C; that for `NS(=O)(=O)c1cc2c(cc1Cl)N=C(NC(=O)CCCCCO[N+](=O)[O-])NS2(=O)=O` (as salt: hydrochloride) [Example 5b, Hexanamide, N-[7-(aminosulfonyl)-6-chloro-1,1-dioxido-2H-1,2,4-benzothiadiazin-3-yl]-6-(nitrooxy)-], 177 to 179 °C. Same read-out and setting: the result for `NS(=O)(=O)c1cc2c(cc1Cl)NCN(CCCCO[N+](=O)[O-])S2(=O)=O` (as salt: potassium) [Example 40b, 2H-1,2,4-Benzothiadiazine-7-sulfonamide, 6-chloro-3,4-dihydro-2-[4-(nitrooxy)butyl]-, 1,1-dioxide] reads 75 to 77 °C. In the case of `NS(=O)(=O)c1cc2c(cc1Cl)N[C@@H](CCCCO[N+](=O)[O-])NS2(=O)=O` (single isomer, unassigned) [17c (enantiomer 1)], the “Urine collected in 6 hours (mL) (30 mg/kg)” value (“Urine collected … (30 mg/kg)” for short) in the series with Male Wistar rats (setting [1]) was 7.0 ± 0.6 mL.

`NS(=O)(=O)c1cc2c(cc1Cl)N[C@H](CCCCO[N+](=O)[O-])NS2(=O)=O` (single isomer, unassigned) [17c (enantiomer 2)]: in the series on Male Wistar rats (setting [1]), the “Urine collected … (30 mg/kg)” value worked out at 7.8 ± 0.5 mL. Turning to `NS(=O)(=O)c1cc2c(cc1Cl)NCN(C[C@H](CO[N+](=O)[O-])O[N+](=O)[O-])S2(=O)=O` (single isomer, unassigned) [75d (enantiomer 1)], in the series on Male Wistar rats (rat, in vivo, po), the “Urine collected in 6 hours (mL) (3 mg/kg)” value (“Urine collected … (3 mg/kg)” for short) is on record as 5.3 ± 0.3 mL. On to `NS(=O)(=O)c1cc2c(cc1Cl)NCN(C[C@@H](CO[N+](=O)[O-])O[N+](=O)[O-])S2(=O)=O` (single isomer, unassigned) [75d (enantiomer 2)], for which, in the series on Male Wistar rats (rat, in vivo, po), the “Urine collected … (3 mg/kg)” value worked out at 5.5 ± 0.4 mL. On to `NC1=Nc2cc(Cl)c(S(N)(=O)=O)cc2S(=O)(=O)N1` [Example 4b, 2H-1,2,4-Benzothiadiazine-7-sulfonamide, 3-amino-6-chloro-, 1,1-dioxide], for which, in the series on Male Wistar rats (setting [2]), the “Urine collected … (3 mg/kg)” value is reported as 4.0 ± 0.5 mL. As for `NS(=O)(=O)c1cc2c(cc1Cl)N=C(NC(=O)CCCCCO[N+](=O)[O-])NS2(=O)=O` [Example 5b, Hexanamide, N-[7-(aminosulfonyl)-6-chloro-1,1-dioxido-2H-1,2,4-benzothiadiazin-3-yl]-6-(nitrooxy)-], the “Urine collected … (30 mg/kg)” value in the series with Male Wistar rats (setting [1]) is reported as 4.5 ± 0.5 mL. Take `Cc1c(C2Nc3cc(C(F)(F)F)c(S(N)(=O)=O)cc3S(=O)(=O)N2)no[n+]1[O-]` (stereo not drawn) [Example 10, 2H-1,2,4-Benzothiadiazine-7-sulfonamide, 3,4-dihydro-3-(4-methyl-5-oxido-1,2,5-oxadiazol-3-yl)-6-(trifluoromethyl)-, 1,1-dioxide]: the “Urine collected … (30 mg/kg)” value with Male Wistar rats (setting [1]) was 6.9 ± 0.9 mL.

On to `CC(C)(C)OC(=O)N1CCC2(CC1)Nc1cc(C(F)(F)F)c(S(N)(=O)=O)cc1S(=O)(=O)N2` [Example 12a, Spiro[2H-1,2,4-benzothiadiazine-3(4H), 4′-piperidine]-1′-carboxylic acid, 7-(aminosulfonyl)-6-(trifluoromethyl)-, 1,1-dimethylethyl ester, 1,1-dioxide], for which the “Urine collected … (30 mg/kg)” value in the series on Male Wistar rats (setting [1]) worked out at 4.0 ± 0.4 mL.

Consider `NS(=O)(=O)c1cc2c(cc1C(F)(F)F)NC1(CCN(C(=O)c3cccc(CO[N+](=O)[O-])c3)CC1)NS2(=O)=O` [Example 15b, Spiro[2H-1,2,4-benzothiadiazine-3(4H), 4′-piperidine]-7-sulfonamide, 1′-[3-[(nitrooxy)methyl]benzoyl]-6-(trifluoromethyl)-, 1,1-dioxide], for which the “Urine collected … (30 mg/kg)” value with Male Wistar rats (setting [1]) turned out to be 4.5 ± 0.2 mL.

For `NS(=O)(=O)c1cc2c(cc1Cl)NC1(CCN(C(=O)CCC(CO[N+](=O)[O-])O[N+](=O)[O-])CC1)NS2(=O)=O` (stereo not drawn) [Example 22b, Spiro[2H-1,2,4-benzothiadiazine-3(4H), 4′-piperidine]-7-sulfonamide, 1′-[4,5-bis(nitrooxy)-1-oxopentyl]-6-chloro-, 1,1-dioxide], the “Urine collected … (30 mg/kg)” value with Male Wistar rats (rat, in vivo, po) was found to be 2.5 ± 0.2 mL. `NS(=O)(=O)c1cc2c(cc1Cl)NCN(CC(=O)O)S2(=O)=O` [Example 31a, 2H-1,2,4-Benzothiadiazine-2-acetic acid, 7-(aminosulfonyl)-6-chloro-3,4-dihydro-, 1,1-dioxide]: the “Urine collected … (3 mg/kg)” value in the series on Male Wistar rats (setting [2]) turned out to be 2.5 ± 0.3 mL. Take `NS(=O)(=O)c1cc2c(cc1Cl)NCN(CC(=O)OC[C@H](CO[N+](=O)[O-])O[N+](=O)[O-])S2(=O)=O` [Example 31b, 2H-1,2,4-Benzothiadiazine-2-acetic acid, 7-(aminosulfonyl)-6-chloro-3,4-dihydro-, (2R)-2,3-bis(nitrooxy)propyl ester, 1,1-dioxide]: the “Urine collected … (3 mg/kg)” value with Male Wistar rats (rat, in vivo, po) came to 2.0 ± 0.3 mL. Take `NS(=O)(=O)c1cc2c(cc1Cl)NC(CBr)NS2(=O)=O` (stereo not drawn) [Example 36a, 2H-1,2,4-Benzothiadiazine-7-sulfonamide, 3-(bromomethyl)-6-chloro-3,4-dihydro-, 1,1-dioxide]: the “Urine collected … (3 mg/kg)” value in the series with Male Wistar rats (setting [2]) amounted to 5.5 ± 0.6 mL.

Take `NS(=O)(=O)c1cc2c(cc1Cl)NC(CN1CCC(CCO[N+](=O)[O-])CC1)NS2(=O)=O.O=C(O)CC(O)(CC(=O)O)C(=O)O` (stereo not drawn) [Example 36c, 2H-1,2,4-Benzothiadiazine-7-sulfonamide, 6-chloro-3,4-dihydro-3-[[4-[2-(nitrooxy)ethyl]-1-piperidinyl]methyl]-, 1,1-dioxide, 2-hydroxy-1,2,3-propanetricarboxylate (1:1) (salt)]: the “Urine collected … (3 mg/kg)” value in the series with Male Wistar rats (setting [2]) turned out to be 3.0 ± 0.4 mL. For the compound `NS(=O)(=O)c1cc2c(cc1Cl)NCN(CC(=O)N(CCO[N+](=O)[O-])CCO[N+](=O)[O-])S2(=O)=O` [Example 39, 2H-1,2,4-Benzothiadiazine-2-acetamide, 7-(aminosulfonyl)-6-chloro-3,4-dihydro-N,N-bis[2-(nitrooxy)ethyl]-, 1,1-dioxide], the “Urine collected … (3 mg/kg)” value in the series on Male Wistar rats (rat, in vivo, po) was determined as 2.5 ± 0.5 mL. Consider `NS(=O)(=O)c1cc2c(cc1Cl)NCN(CCCCO[N+](=O)[O-])S2(=O)=O` [Example 40b, 2H-1,2,4-Benzothiadiazine-7-sulfonamide, 6-chloro-3,4-dihydro-2-[4-(nitrooxy)butyl]-, 1,1-dioxide], for which, in the series with Male Wistar rats (setting [2]), the “Urine collected … (3 mg/kg)” value is listed as 6.0 ± 0.7 mL. For the compound `NS(=O)(=O)c1cc2c(cc1Cl)NCN(CCOC(=O)CCC(CO[N+](=O)[O-])O[N+](=O)[O-])S2(=O)=O` (stereo not drawn) [Example 42, Pentanoic acid, 4,5-bis(nitrooxy)-, 2-[7-(aminosulfonyl)-6-chloro-3,4-dihydro-1,1-dioxido-2H-1,2,4-benzothiadiazin-2-yl]ethyl ester], the “Urine collected … (3 mg/kg)” value in the series on Male Wistar rats (rat, in vivo, po) is 6.2 ± 0.3 mL. `NS(=O)(=O)c1cc2c(cc1Cl)NCN(CCOC(=O)CCCCO[N+](=O)[O-])S2(=O)=O` [Example 44, Pentanoic acid, 5-(nitrooxy)-, 2-[7-(aminosulfonyl)-6-chloro-3,4-dihydro-1,1-dioxido-2H-1,2,4-benzothiadiazin-2-yl]ethyl ester]: the “Urine collected … (3 mg/kg)” value with Male Wistar rats (setting [2]) stood at 2.5 ± 0.3 mL. The same measure, in the same setting: the result for `NS(=O)(=O)c1cc2c(cc1Cl)NCN(CCCCOc1cc(CO)cc(CO)c1)S2(=O)=O` [Example 69a, 2H-1,2,4-Benzothiadiazine-7-sulfonamide, 2-[4-[3,5-bis(hydroxymethyl)phenoxy]butyl]-6-chloro-3,4-dihydro-, 1,1-dioxide] reads 2.7 ± 0.6 mL; that for `NS(=O)(=O)c1cc2c(cc1Cl)NCN(CCCOc1cc(CO)cc(CO)c1)S2(=O)=O` [Example 70b, 2H-1,2,4-Benzothiadiazine-7-sulfonamide, 2-[3-[3,5-bis(hydroxymethyl)phenoxy]propyl]-6-chloro-3,4-dihydro-, 1,1-dioxide], 2.8 ± 0.7 mL; that for `NS(=O)(=O)c1cc2c(cc1Cl)NCN(CCOc1cc(CO)cc(CO)c1)S2(=O)=O` [Example 71b, 2H-1,2,4-Benzothiadiazine-7-sulfonamide, 2-[2-[3,5-bis(hydroxymethyl)phenoxy]ethyl]-6-chloro-3,4-dihydro-, 1,1-dioxide], 2.1 ± 0.5 mL. On the same count and under the same terms, the result for `NS(=O)(=O)c1cc2c(cc1Cl)NCN(CC(O)CO)S2(=O)=O` (stereo not drawn) [Example 75b, 2H-1,2,4-Benzothiadiazine-7-sulfonamide, 6-chloro-2-(2,3-dihydroxypropyl)-3,4-dihydro-, 1,1-dioxide] reads 4.6 ± 0.6 mL. With `NS(=O)(=O)c1cc2c(cc1Cl)NCN(CC(CO[N+](=O)[O-])O[N+](=O)[O-])S2(=O)=O` (stereo not drawn) [Example 75c, 2H-1,2,4-Benzothiadiazine-7-sulfonamide, 2-[2,3-bis(nitrooxy)propyl]-6-chloro-3,4-dihydro-, 1,1-dioxide], the “Urine collected … (3 mg/kg)” value in the series on Male Wistar rats (rat, in vivo, po) is 5.4 ± 0.6 mL.
